Read-outs that look alike come from different tables or passages of the source.
Assays:
Experiment in all cases: Kinase panel profiling at 1 µmol/L (MSA or IMAP), percentage inhibition
Assay type in all cases: biochemical
[1] = molecular target: T1, panel of 255 wild-type kinases (Homo sapiens, UniProt P29320); conditions: read-out: %-inhibition at 1 µmol/L, EPHA3
T1 sequence (P29320 21-983): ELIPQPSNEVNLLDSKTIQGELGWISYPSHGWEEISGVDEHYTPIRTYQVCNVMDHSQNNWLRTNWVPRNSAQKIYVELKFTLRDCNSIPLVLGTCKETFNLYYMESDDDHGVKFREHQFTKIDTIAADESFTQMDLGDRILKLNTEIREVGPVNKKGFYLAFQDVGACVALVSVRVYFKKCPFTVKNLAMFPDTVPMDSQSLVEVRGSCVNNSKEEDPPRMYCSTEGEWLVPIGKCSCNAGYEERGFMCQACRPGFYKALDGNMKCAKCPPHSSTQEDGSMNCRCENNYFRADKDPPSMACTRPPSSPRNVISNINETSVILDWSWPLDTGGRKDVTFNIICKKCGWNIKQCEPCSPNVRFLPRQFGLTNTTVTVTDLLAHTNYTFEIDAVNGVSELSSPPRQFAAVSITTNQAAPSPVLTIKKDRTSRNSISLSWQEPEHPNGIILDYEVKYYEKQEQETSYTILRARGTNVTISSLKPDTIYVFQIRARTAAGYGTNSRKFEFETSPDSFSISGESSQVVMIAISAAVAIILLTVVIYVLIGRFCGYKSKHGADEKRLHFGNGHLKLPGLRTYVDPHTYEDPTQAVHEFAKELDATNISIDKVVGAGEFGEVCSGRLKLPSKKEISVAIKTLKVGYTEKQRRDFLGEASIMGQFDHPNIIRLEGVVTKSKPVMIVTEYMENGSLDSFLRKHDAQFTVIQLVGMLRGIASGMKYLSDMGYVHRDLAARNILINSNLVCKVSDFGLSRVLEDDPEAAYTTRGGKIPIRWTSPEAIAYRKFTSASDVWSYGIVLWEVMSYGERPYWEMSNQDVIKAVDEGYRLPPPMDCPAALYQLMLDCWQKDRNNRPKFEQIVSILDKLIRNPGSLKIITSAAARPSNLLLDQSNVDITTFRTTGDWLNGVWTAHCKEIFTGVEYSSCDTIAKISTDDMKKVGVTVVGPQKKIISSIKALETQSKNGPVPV

[2] = molecular target: panel of 255 wild-type kinases (Homo sapiens, UniProt P23458); conditions: read-out: %-inhibition at 1 µmol/L, JAK1
[3] = molecular target: panel of 255 wild-type kinases (Homo sapiens, UniProt Q9UM73); conditions: read-out: %-inhibition ALK
[4] = molecular target: panel of 255 wild-type kinases (Homo sapiens, UniProt P05129); conditions: read-out: %-inhibition at 1 µmol/L, PKCγ
[5] = molecular target: panel of 255 wild-type kinases (Homo sapiens, UniProt Q15119); conditions: read-out: %-inhibition at 1 µmol/L, PDHK2
[6] = molecular target: panel of 255 wild-type kinases (Homo sapiens, UniProt O96017); conditions: read-out: %-inhibition CHK2
[7] = molecular target: panel of 255 wild-type kinases (Homo sapiens, UniProt P07948); conditions: read-out: %-inhibition at 1 µmol/L, LYNa
[8] = molecular target: panel of 255 wild-type kinases (Homo sapiens, UniProt P11309); conditions: read-out: %-inhibition at 1 µmol/L, PIM1
[9] = molecular target: panel of 255 wild-type kinases (Homo sapiens, UniProt Q9HCP0); conditions: read-out: %-inhibition at 1 µmol/L, CK1γ1
[10] = molecular target: panel of 255 wild-type kinases (Homo sapiens, UniProt P12931); conditions: read-out: %-inhibition at 1 µmol/L, SRC
[11] = molecular target: panel of 255 wild-type kinases (Homo sapiens, UniProt P27448); conditions: read-out: %-inhibition, MARK3
[12] = molecular target: T2, panel of 255 wild-type kinases (Homo sapiens, UniProt Q8TF76); conditions: read-out: %-inhibition at 1 µmol/L, Haspin
T2 sequence (Q8TF76 1-798): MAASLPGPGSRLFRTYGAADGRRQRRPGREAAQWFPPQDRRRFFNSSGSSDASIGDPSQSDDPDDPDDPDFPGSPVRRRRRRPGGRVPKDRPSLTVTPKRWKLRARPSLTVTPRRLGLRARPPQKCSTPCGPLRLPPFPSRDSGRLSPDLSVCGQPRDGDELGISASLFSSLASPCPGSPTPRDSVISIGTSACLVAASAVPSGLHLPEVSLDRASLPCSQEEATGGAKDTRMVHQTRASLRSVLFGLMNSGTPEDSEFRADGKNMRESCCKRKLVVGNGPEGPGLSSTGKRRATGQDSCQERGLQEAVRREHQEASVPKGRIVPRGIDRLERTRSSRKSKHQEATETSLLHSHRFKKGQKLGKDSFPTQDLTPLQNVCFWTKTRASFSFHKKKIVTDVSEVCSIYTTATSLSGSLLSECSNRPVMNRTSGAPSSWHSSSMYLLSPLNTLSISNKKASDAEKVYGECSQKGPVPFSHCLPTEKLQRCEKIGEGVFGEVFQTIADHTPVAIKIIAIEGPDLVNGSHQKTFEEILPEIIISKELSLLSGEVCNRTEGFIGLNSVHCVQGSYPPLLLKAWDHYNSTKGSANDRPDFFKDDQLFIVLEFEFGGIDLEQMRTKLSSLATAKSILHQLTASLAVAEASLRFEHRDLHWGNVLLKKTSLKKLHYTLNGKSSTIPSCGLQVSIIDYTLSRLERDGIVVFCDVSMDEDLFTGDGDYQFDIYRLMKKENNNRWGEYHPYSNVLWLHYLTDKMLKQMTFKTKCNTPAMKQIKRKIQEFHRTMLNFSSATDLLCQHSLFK

[13] = molecular target: panel of 255 wild-type kinases (Homo sapiens, UniProt O75116); conditions: read-out: %-inhibition at 1 µmol/L, ROCK2
[14] = kinase EPHA3, 1 µmol/L single concentration
[15] = kinase JAK1, 1 µmol/L single concentration
[16] = ALK kinase assay, 1 µmol/L single concentration
[17] = kinase PKCγ, 1 µmol/L single concentration
[18] = kinase PDHK2, 1 µmol/L single concentration
[19] = CHK2 kinase assay, 1 µmol/L single concentration
[20] = kinase LYNa, 1 µmol/L single concentration
[21] = kinase PIM1, 1 µmol/L single concentration
[22] = kinase CK1γ1, 1 µmol/L single concentration
[23] = kinase SRC, 1 µmol/L single concentration
[24] = MARK3, 1 µmol/L single concentration
[25] = kinase Haspin, 1 µmol/L single concentration
[26] = kinase ROCK2, 1 µmol/L single concentration

SMILES	inhibition at 1 µM [1, 14] [%]	inhibition at 1 µM [2, 15] [%]	inhibition at 1 µM [3, 16] [%]	inhibition at 1 µM [4, 17] [%]	inhibition at 1 µM [5, 18] [%]	inhibition at 1 µM [6, 19] [%]	inhibition at 1 µM [7, 20] [%]	inhibition at 1 µM [8, 21] [%]	inhibition at 1 µM [9, 22] [%]	inhibition at 1 µM [10, 23] [%]	inhibition at 1 µM [11, 24] [%]	inhibition at 1 µM [12, 25] [%]	inhibition at 1 µM [13, 26] [%]	other results
Cc1nc(NC(=O)N2CCC[C@H]2C(N)=O)sc1-c1ccnc(C(C)(C)C(F)(F)F)c1 [alpelisib]	-0.173	-8	1.84	-1.86	0.0902	-1.14	1.8	4	-1.77	3.29	11	-4	0.528	
Cn1cc(-c2cc3c(N4CCN(c5ncc([C@@](C)(N)c6ccc(F)cc6)cn5)CC4)ncnn3c2)cn1 [avapritinib]	22	29	35	-2.11	0.651	5.47	87	24	28	66	-6	59	11	
Cn1cnc2c(F)c(Nc3ccc(Br)cc3F)c(C(=O)NOCCO)cc21 [binimetinib]	0.248	5	6.37	0.893	-1.13	4.21	3.76	-16	1.68	-0.525	7	-15	-4	
CNC(=O)c1ccc(-c2cnc3ncc(Cc4ccc5ncccc5c4)n3n2)cc1F [capmatinib]														inhibition at 1 µM [1]: -9%; inhibition at 1 µM [2]: 2.61%; inhibition at 1 µM [3]: 28%; inhibition at 1 µM [4]: 0.161%; inhibition at 1 µM [5]: -2.62%; inhibition at 1 µM [6]: -1.52%; inhibition at 1 µM [7]: 1.12%; inhibition at 1 µM [8]: -9%; inhibition at 1 µM [9]: -1.88%; inhibition at 1 µM [10]: -1.77%; inhibition at 1 µM [11]: -0.936%; inhibition at 1 µM [12]: 37%; inhibition at 1 µM [13]: -0.288%
COc1cc2ncnc(Nc3ccc(F)c(Cl)c3)c2cc1NC(=O)/C=C/CN1CCCCC1 [dacomitinib]	11	0.444	17	4	2.44	23	79	32	1.84	44	10	13	-4.35	
C[C@H](Nc1ncnc2nc[nH]c12)c1cc2cccc(Cl)c2c(=O)n1-c1ccccc1 [duvelisib]	0.475	0.053	3.74	-4.38	3.57	-3.49	0.825	-0.908	-1.46	-1.74	12	2	-0.18	
COC(=O)N[C@@H](C)CNc1nccc(-c2cn(C(C)C)nc2-c2cc(Cl)cc(NS(C)(=O)=O)c2F)n1 [encorafenib]	4	3.6	8	4	-2	7	5	10	26	-2.16	8	-5	1.32	
C[C@H]1Oc2cc(cnc2N)-c2c(nn(C)c2C#N)CN(C)C(=O)c2ccc(F)cc21 [lorlatinib]	4.35	-0.817		-3.74	1.88	41	21	8	-2.3	28	26	0.865	3.28	
Cn1cnc2c(F)c(Nc3ccc(Br)cc3Cl)c(C(=O)NOCCO)cc21 [selumetinib]	-8	2.46		-0.133	2.47	4	6.53	-6	-2.69	-2.83	-6	3.64	2.83	
C=CC(=O)N1CCC([C@@H]2CCNc3c(C(N)=O)c(-c4ccc(Oc5ccccc5)cc4)nn32)CC1 [zanubrutinib]	-0.0989	-3	2.23	-2.24	5	4		-11	-3.73		-1.28	-1.75	-3.24	

Reference: paper PMC9516332 (Frontiers in Oncology, 2022)
